From BindingDB's records for doi:10.1021/jm9800144 (Smithkline Beecham, 1998) come the findings set out here.

The test has as its target V-ATPase (Gallus gallus). In words: Compound was tested for inhibition of V-ATPase from Chicken osteoclasts (cOc).

The compound `COC(=O)/C(=C\C=C\c1cc2cc(Cl)c(Cl)cc2[nH]1)OC` [(2E,4E)-5-(5,6-Dichloro-1H-indol-2-yl)-2-methoxy-penta-2,4-dienoic acid methyl ester] returned an IC50 of 1900 nM.
